Source: US8044198B2, “Sirtuin modulating compounds” (Sirtris Pharmaceuticals, Inc., priority 2005, dated 2011)

How the values were obtained:
NCI-H358 cells = test: Cellular ATP Assay (ATPLite 1Step normalized to AlamarBlue viability); format: cell-based; conditions: Homo sapiens, compounds that raised intracellular ATP levels, read-out: ED50 ATP ASSAY
Method: Cellular ATP levels are an indirect measurement of cellular metabolic rates and, by extension, mitochondrial function. […] The ATP assay is combined with a cellular viability assay so that cellular ATP levels can be normalized to viable cells. Cellular ATP levels were measured using the ATPLite 1Step Kit (PerkinElmer) and cellular viability was measured using the cell permeable dye, AlamarBlue™.
The Cellular ATP Assay is a multiplexed assay that measures both ATP levels and viability of a given cell sample. This assay is run in a 96-well Assay Plate and data are reported as the [ATP]/viability for each well in the Assay Plate.
The ATPLite 1 Step™ Kit is a single-step luminescent cell-based assay for detection of ATP. The kit contains lyophilized substrate mixture, comprised of D-luciferin and the firefly (Photinus pyralis) enzyme luciferase. Additionally, the kit contains a detergent-based reconstitution buffer that induces the lysis of cellular membranes. The luciferase in the assay mixture catalyzes a reaction between the free cellular ATP and D-luciferin to produce bioluminescence according to the schematic reaction outlined below. The amount of light produced is proportional to the cellular ATP concentration.
The AlamarBlue™ Assay is a single-step assay that utilizes a soluble, non-toxic, cell permeable dye that is added to cell growth media. This dye undergoes electron reduction in viable cells but not dead cells. The reduced dye product gives a fluorescent signal which can be monitored with a fluorescence plate reader (excitation 545 nm and emission 575 nm). The amount of fluorescence generated in a given well is proportional to the number of viable cells. The viability signal generated by this assay is used to normalize the ATP signal from the ATPLite 1Step™ assay results.
The material was dissolved in 100% vehicle (DMSO) to yield a final concentration of 10 mM (stock solution). The stock solution was serially diluted with 100% DMSO as described in SOP 7.10.
In this assay NCI-H358 cells (obtained from the American Tissue Culture Collection, ATCC) were seeded in 96 well microplates (10^4 cells/well). The NCI-H358 Growth Culture Media consists of RPMI 1640 Media supplemented with 10% FBS, […] streptomycin, and 100 units/mL penicillin. […] After 48 hours of compound treatment under cell growth conditions, plates were removed from incubator, and 15 μl of AlamarBlue™ dye was added to each well. Cell microplates were incubated with dye for 2 hours under growth conditions, and fluorescence was subsequently measured using a plate reader. Media containing AlamarBlue™ was removed, and plates were washed in 100 μl of PBS per well. This wash was removed, and 200 μl of 1×ATPLite 1Step reagent was added to each well. Luminescence was then measured using a plate reader. The ATP signal for each well, measured by the luminescence scan, was normalized to its corresponding cell viability value, measured by the fluorescence scan, to generate the average ATP level per viable cell unit (ATP/vCell). The ATP/vCell for each treatment was then normalized to the average vehicle ATP/vCell for its respective cell microplate, yielding the normalized ATP/vCell (norm. ATP/vCell). Finally, the norm. ATP/vCell for each unique treatment was averaged across plate replicates, generating the average norm. ATP/vCell.
Each of these ATP levels was normalized to the cell viability in the corresponding treatment well, generating the ATP/vCell value. Each ATP/vCell value was subsequently normalized to its average Vehicle ATP/vCell values for its respective cell microplate.
Data are represented as the normalized ATP/vCell (arbitrary units). […] These values represent an average of three plate replicates.
A number of compounds were screened for their affect on ATP levels in the assay as described in Example 5. […] NA means that the compound was not tested using the indicated assay.

SIRT1 = molecular target: T1, SIRT1 (Homo sapiens, UniProt Q96EB6); test: SIRT1 mass spectrometry (MS) based deacetylation assay; format: biochemical; conditions: for EC50: SIRT1 activation, mass spectrometry assay, read-out: ED50 MS ASSAY; for FOLD ACT. MS: SIRT1 fold activation as determined by MS
T1 sequence (Q96EB6 1-747): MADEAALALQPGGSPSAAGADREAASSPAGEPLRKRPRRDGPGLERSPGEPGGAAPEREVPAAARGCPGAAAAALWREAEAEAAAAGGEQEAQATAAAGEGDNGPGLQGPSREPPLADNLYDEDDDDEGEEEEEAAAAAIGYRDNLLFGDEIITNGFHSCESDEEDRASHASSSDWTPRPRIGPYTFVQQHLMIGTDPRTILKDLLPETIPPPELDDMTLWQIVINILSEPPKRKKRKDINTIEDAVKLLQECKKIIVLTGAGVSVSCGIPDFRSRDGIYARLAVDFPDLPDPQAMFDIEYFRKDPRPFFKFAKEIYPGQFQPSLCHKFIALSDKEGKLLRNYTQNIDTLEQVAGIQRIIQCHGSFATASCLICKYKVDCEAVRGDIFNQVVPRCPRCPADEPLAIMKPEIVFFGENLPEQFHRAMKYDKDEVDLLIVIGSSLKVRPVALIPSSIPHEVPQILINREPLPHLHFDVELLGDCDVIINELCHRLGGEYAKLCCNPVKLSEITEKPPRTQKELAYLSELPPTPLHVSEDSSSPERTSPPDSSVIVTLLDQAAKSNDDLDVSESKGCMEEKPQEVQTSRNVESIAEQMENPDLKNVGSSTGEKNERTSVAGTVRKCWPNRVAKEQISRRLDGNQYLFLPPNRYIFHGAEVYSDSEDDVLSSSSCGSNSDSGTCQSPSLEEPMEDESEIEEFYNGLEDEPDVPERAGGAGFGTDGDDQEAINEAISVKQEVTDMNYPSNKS

Row | Compound | EC50 (NCI-H358 cells) | EC50 (SIRT1) | FOLD ACT. MS (SIRT1)
1 | O=C(Nc1ccc2c(c1)OCO2)N1CCCN(c2nc3ccccc3o2)CC1 [Compound 90] | > 150 µM | – | –
2 | COc1cccc(OC)c1C(=O)Nc1cccc(-c2nc3ccccc3s2)c1 [Compound 120] | < 50 µM | – | –
3 | COc1cc(C(=O)Nc2cccc(-c3nc4cc(Cl)cc(Cl)c4o3)c2)cc(OC)c1OC [Compound 123] | > 150 µM | – | –
4 | COc1cc(C(=O)Nc2ccccc2-c2nc3cc(CN4CCN(C)CC4)cnc3s2)cc(OC)c1OC [Compound 702] | – | 5 to 50 µM | A (A (Fold activation >250%))
5 | Cc1csc2nc(-c3ccccc3NC(=O)c3cnc4ccccc4n3)cn12 [Compound 707] | – | < 5 µM | A (A (Fold activation >250%))
6 | O=C(Nc1ccccc1-c1cn2c(CN3CCNCC3)csc2n1)c1ccc(-c2ccccc2)cc1 [Compound 708] | – | < 5 µM | A (A (Fold activation >250%))
7 | O=C(Nc1ccccc1-c1cn2c(CN3CCNCC3)csc2n1)c1cccc(-c2ccccc2)c1 [Compound 710] | – | < 5 µM | A (A (Fold activation >250%))
8 | CC(C)(C)OC(=O)CNCc1csc2nc(-c3ccccc3NC(=O)c3cnc4ccccc4n3)cn12 [Compound 711] | – | 5 to 50 µM | B (B (Fold Activation <250%))
9 | O=C(Nc1ccccc1-c1cn2c(CN3CCC(F)CC3)csc2n1)c1cnc2ccccc2n1 [Compound 714] | – | 5 to 50 µM | B (B (Fold Activation <250%))
10 | O=C(Nc1ccccc1-c1cn2c(CN3CCSC3)csc2n1)c1cnc2ccccc2n1 [Compound 715] | – | < 5 µM | B (B (Fold Activation <250%))
11 | NC1CCN(Cc2csc3nc(-c4ccccc4NC(=O)c4cnc5ccccc5n4)cn23)CC1 [Compound 716] | – | < 5 µM | A (A (Fold activation >250%))
12 | O=C(Nc1ccccc1-c1cn2c(CN3CC(F)(F)C3)csc2n1)c1cnc2ccccc2n1 [Compound 717] | – | 5 to 50 µM | B (B (Fold Activation <250%))
13 | O=C(Nc1ccccc1-c1cn2c(C(=O)O)csc2n1)c1cnc2ccccc2n1 [Compound 719] | – | 5 to 50 µM | A (A (Fold activation >250%))
14 | O=C(O)Cc1csc2nc(-c3ccccc3NC(=O)c3cnc4ccccc4n3)cn12 [Compound 721] | – | 5 to 50 µM | A (A (Fold activation >250%))
15 | COc1cc(OC)cc(C(=O)Nc2ccccc2-c2nc3cc(CN(C)C)cnc3s2)c1 [Compound 722] | – | < 5 µM | A (A (Fold activation >250%))
16 | COc1cc(OC)cc(C(=O)Nc2ccccc2-c2nc3c(CN4CCNCC4)ccnc3s2)c1 [Compound 723] | – | 5 to 50 µM | A (A (Fold activation >250%))
17 | O=C(Nc1ccccc1-c1nc2cc(CN3CCOCC3)cnc2s1)c1ccc2ccccc2n1 [Compound 724] | – | < 5 µM | A (A (Fold activation >250%))
18 | COc1cc(OC)cc(C(=O)Nc2ccccc2-c2nc3cc(CN4CCN(C)CC4)cnc3s2)c1 [Compound 725] | – | < 5 µM | A (A (Fold activation >250%))
19 | COc1cc(OC)cc(C(=O)Nc2ccccc2-c2nc3ccc(CN4CCNCC4)nc3s2)c1 [Compound 726] | – | < 5 µM | A (A (Fold activation >250%))

Row | Compound | EC50 (NCI-H358 cells) | EC50 (SIRT1) | FOLD ACT. MS (SIRT1)
20 | Cc1ccc(C(=O)Nc2ccccc2-c2nc3ccc(CN4CCNCC4)nc3s2)cc1C [Compound 727] | – | < 5 µM | A (A (Fold activation >250%))
21 | O=C(Nc1ccccc1-c1nc2ccc(CN3CCNCC3)nc2s1)c1ccc(F)c(F)c1 [Compound 728] | – | 5 to 50 µM | A (A (Fold activation >250%))
22 | O=C(Nc1ccccc1-c1nc2ccc(CN3CCNCC3)nc2s1)c1ccc2ccccc2n1 [Compound 729] | – | < 5 µM | A (A (Fold activation >250%))
23 | O=C(Nc1ccccc1-c1nc2cc(CN3CCNCC3)cnc2s1)c1ccc2ncsc2c1 [Compound 730] | – | 5 to 50 µM | A (A (Fold activation >250%))
24 | O=C(Nc1ccccc1-c1nc2cc(CN3CCNCC3)cnc2s1)c1cccc(C(F)(F)F)c1 [Compound 731] | – | 5 to 50 µM | A (A (Fold activation >250%))
25 | O=C(Nc1ccccc1-c1nc2cc(CN3CCNCC3)cnc2s1)c1cc(-c2ccccc2)no1 [Compound 732] | – | < 5 µM | B (B (Fold Activation <250%))
26 | O=C(Nc1ccccc1-c1cn2c(CN3CCNCC3)csc2n1)c1cccc(-c2cc[nH]n2)c1 [Compound 733] | – | < 5 µM | A (A (Fold activation >250%))
27 | COc1ccc(-c2cc(C(=O)Nc3ccccc3-c3cn4c(CN5CCNCC5)csc4n3)[nH]n2)cc1 [Compound 735] | – | < 5 µM | A (A (Fold activation >250%))
28 | COc1ccc(-c2ccc(C(=O)Nc3ccccc3-c3cn4c(CN5CCNCC5)csc4n3)o2)cc1 [Compound 736] | – | < 5 µM | A (A (Fold activation >250%))
29 | O=C(Nc1ccccc1-c1cn2c(CN3CCNCC3)csc2n1)c1cccc(SC(F)F)c1 [Compound 737] | – | < 5 µM | A (A (Fold activation >250%))
30 | COc1cccc(C(=O)Nc2ccccc2-c2cn3c(CN4CCNCC4)csc3n2)c1 [Compound 738] | – | 5 to 50 µM | A (A (Fold activation >250%))
31 | COc1cc(C(=O)Nc2ccccc2-c2cn3c(C)csc3n2)cc(OC)c1OC [Compound 739] | – | < 5 µM | A (A (Fold activation >250%))
32 | Cc1csc2nc(-c3ccccc3NC(=O)c3cccc(N(C)C)c3)cn12 [Compound 740] | – | < 5 µM | B (B (Fold Activation <250%))
33 | CN1CCN(Cc2csc3nc(-c4ccccc4NC(=O)c4cnc5ccccc5n4)cn23)C(=O)C1 [Compound 741] | – | < 5 µM | A (A (Fold activation >250%))
34 | O=C(Nc1ccccc1-c1cn2c(CN3CCSCC3)csc2n1)c1cnc2ccccc2n1 [Compound 742] | – | < 5 µM | B (B (Fold Activation <250%))
35 | COc1cc(F)cc(C(=O)Nc2ccccc2-c2cn3c(CN4CCNCC4)csc3n2)c1 [Compound 743] | – | 5 to 50 µM | A (A (Fold activation >250%))
36 | O=C(Nc1ccccc1-c1cn2c(CN3CCNCC3)csc2n1)c1cccnc1F [Compound 744] | – | 51 to 100 µM | A (A (Fold activation >250%))
37 | O=C(Nc1ccccc1-c1cn2c(Cn3ccnc3)csc2n1)c1cnc2ccccc2n1 [Compound 745] | – | < 5 µM | A (A (Fold activation >250%))
